Reference: patent US20230331739A1, “INDOLO HEPTAMYL OXIME ANALOG CRYSTAL AS PARP INHIBITOR AND METHOD FOR PREPARING SAME” (CHIA TAI TIANQING PHARMACEUTICAL GROUP CO., LTD., priority 2020, published 2023)
Where two headings read alike, the source gives them in different places.

Experiments:
[1] = Preliminary stability examination at 60° C. and 75% humidity; format: physicochemical; conditions: 60° C. 75% RH
Method: 1. Preliminary Stability Examination • Examination conditions: The stability of crystalline form A and crystalline form B was simultaneously examined at 60° C. and 75% humidity.

[2] = Accelerated stability test at 40° C.±2° C. and 75±5% RH; format: physicochemical; conditions: 40° C. ± 2° C./75 ± 5% RH
Method: 2. Accelerated Test • Examination conditions: Samples of crystalline form A of the compound of formula (I) were packed into double-layer pharmaceutical low-density polyethylene bags. Each layer of the pharmaceutical low-density polyethylene bag was sealed, then the bags were put into aluminum foil bags, and the aluminum foil bags were heat-sealed. Accelerated test was conducted at 40° C.±2° C. and 75±5% RH.

[3] = system: MDA-MB-436 cells with BRCA1 mutation; assay: Anti-proliferation study on MDA-MB-436 cells (CellTiter-Glo); format: cell-based; conditions: Homo sapiens, MDA-MB-436, 168 h; 7 days incubation
Method: Materials: test compounds; RPMI-1640 medium; fetal bovine serum; penicillin/streptomycin antibiotic; MDA-MB-436 cells; Envision Multimode Plate Reader (PerkinElmer). MDA-MB-436 cells were seeded in a white 96-well plate by adding 80 μL of cell suspension (containing 3000 MDA-MB-436 cells) to each well. The cell plate was incubated in a CO2 incubator overnight. The test compounds were serially 5-fold diluted to the 8th concentration with a multichannel pipette, i.e., from 2 mM to 26 nM, in duplicate. 78 μL of medium was added to an intermediate plate, and the serially diluted compound was transferred to the intermediate plate at 2 μL per well. After being mixed well, the mixture was transferred to the cell plate at 20 μL per well. […] Another cell plate was provided for reading signal values on the day of compound addition and these signal values were used as Max values in data analysis. Promega CellTiter-Glo was added to the cell plate at 25 μL per well and the luminescence signals were stabilized by incubation for 10 min at room temperature. Readings were taken using a PerkinElmer Envision Multimode Plate Reader. […]

[4] = Single-dose pharmacokinetic study in mice; format: in vivo, male C57BL/6 mice
Method: Objectives: To evaluate the pharmacokinetic behavior in male C57BL/6 mice and to determine the drug concentrations of the compound in the plasma, liver and cerebrospinal fluid after a single dose.
Procedures: Healthy adult male C57BL/6 mice were selected for intragastric administration. The candidate compound was mixed with an appropriate amount of 10% DMSO/90% (20% hydroxypropyl-@-cyclodextrin), vortexed and sonicated to prepare a 0.5 mg/mL clear solution for later use. After the mice were administered intravenously at 1 mg/kg and orally at 5 mg/kg, whole blood was collected at certain time points. Plasma was separated, and liver and cerebrospinal fluid were collected. After pretreatment of the samples, the drug concentration was measured by LC-MS/MS, and pharmacokinetic parameters were calculated using Phoenix WinNonlin software.

## C[C@]1(c2ccc(-c3[nH]c4cc(F)cc5c4c3CONC5=O)cc2)CCCN1.Cl [Crystalline form A]
[1]
  Preliminary stability examination (content, %) Day 0: 99.73%
  Preliminary stability examination (content, %) Day 10: 99.72%
[2]; Initial values
  Appearance: Earthy yellow
  Content: 98.0%
  Isomer: Not detectable
  Total impurities: 0.45%
  Water content: 2.07%
[2]; Month 1
  Appearance: Earthy yellow
  Content: 96.2%
  Isomer: Not detectable
  Total impurities: 0.75%
  Water content: 2.50%
[2]; Month 2
  Appearance: Earthy yellow
  Content: 96.9%
  Isomer: Not detectable
  Total impurities: 0.78%
  Water content: 2.26%
[2]; Month 3
  Appearance: Earthy yellow
  Content: 96.9%
  Isomer: Not detectable
  Total impurities: 0.62%
  Water content: 1.89%
[2]; Month 6
  Appearance: Earthy yellow
  Content: 97.5%
  Isomer: Not detectable
  Total impurities: 0.93%
  Water content: 2.14%
[3]
  IC50: 8.4 nM

## C[C@]1(c2ccc(-c3[nH]c4cc(F)cc5c4c3CONC5=O)cc2)CCCN1.Cl [Crystalline form B]
[1]
  Preliminary stability examination (content, %) Day 0: 99.09%
  Preliminary stability examination (content, %) Day 10: 98.93%

## CNCc1ccc(-c2[nH]c3cc(F)cc4c3c2CCNC4=O)cc1 [Rucaparib, reference compound]
[4]; IV: 1 mg/kg PO: 5 mg/kg
  Maximum concentration: 24.8 nM
[4]; male, C57BL/6, mouse, plasma, IV 1 mg/kg, read-out: AUC0-last (intravenous injection)
  AUC(0-t): 0.255 µM·h
[4]; male, C57BL/6, mouse, plasma, IV: 1 mg/kg PO: 5 mg/kg
  half-life: 1.78 h
[4]; male, C57BL/6, mouse, plasma, PO 5 mg/kg, read-out: AUC0-last (oral)
  AUC(0-t): 0.145 µM·h
